Consider 20 compounds from patent publication US20260265238A1, “COMPOUNDS AND PHARMACEUTICAL COMPOSITIONS THAT DEGRADE SWI/SNF-RELATED MATRIX-ASSOCIATED ACTIN-DEPENDENT REGULATOR OF CHROMATIN SUBFAMILY A” (Plexium, Inc., priority 2023, published 2026).

Experiment [1] addresses T1, SMARCA2-HiBiT HeLa cells (protein which is expressed from the SMARCA2 gene) (Homo sapiens, UniProt P51531).
T1 construct: protein which is expressed from the SMARCA2 and SMARCA4 genes; host or cells: HeLa (SMARCA2-HiBiT engineered line)
In words: SMARCA2 degradation assay (HiBiT-fusion HeLa cell line, 24 h, luminescence). It counts as cell-based. In a few lines:
(§1)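 In this 24-hour cellular degradation readout, HiBiT-tagged HeLa lines received compound at up to typically 10 μM down to 300 pM in 10 points. After lysis with LgBiT and substrate, luminescence signals were used to build dose-response curves for DC50.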
Background: With HiBiT, luminescence reflects the tagged protein that the partner subunit can reach.

In experiment [2] the target is T2, SMARCA4-HiBiT HeLa cells (protein which is expressed from the SMARCA4 gene) (Homo sapiens, UniProt P51532).
T2 construct: protein which is expressed from the SMARCA2 and SMARCA4 genes; host or cells: HeLa (SMARCA4-HiBiT engineered line)
In words: SMARCA4 degradation assay (HiBiT-fusion HeLa cell line, 24 h, luminescence). It counts as cell-based. Put shortly:
as §1

Some results are limits rather than exact numbers.

T1 sequence (P51531 whole entry): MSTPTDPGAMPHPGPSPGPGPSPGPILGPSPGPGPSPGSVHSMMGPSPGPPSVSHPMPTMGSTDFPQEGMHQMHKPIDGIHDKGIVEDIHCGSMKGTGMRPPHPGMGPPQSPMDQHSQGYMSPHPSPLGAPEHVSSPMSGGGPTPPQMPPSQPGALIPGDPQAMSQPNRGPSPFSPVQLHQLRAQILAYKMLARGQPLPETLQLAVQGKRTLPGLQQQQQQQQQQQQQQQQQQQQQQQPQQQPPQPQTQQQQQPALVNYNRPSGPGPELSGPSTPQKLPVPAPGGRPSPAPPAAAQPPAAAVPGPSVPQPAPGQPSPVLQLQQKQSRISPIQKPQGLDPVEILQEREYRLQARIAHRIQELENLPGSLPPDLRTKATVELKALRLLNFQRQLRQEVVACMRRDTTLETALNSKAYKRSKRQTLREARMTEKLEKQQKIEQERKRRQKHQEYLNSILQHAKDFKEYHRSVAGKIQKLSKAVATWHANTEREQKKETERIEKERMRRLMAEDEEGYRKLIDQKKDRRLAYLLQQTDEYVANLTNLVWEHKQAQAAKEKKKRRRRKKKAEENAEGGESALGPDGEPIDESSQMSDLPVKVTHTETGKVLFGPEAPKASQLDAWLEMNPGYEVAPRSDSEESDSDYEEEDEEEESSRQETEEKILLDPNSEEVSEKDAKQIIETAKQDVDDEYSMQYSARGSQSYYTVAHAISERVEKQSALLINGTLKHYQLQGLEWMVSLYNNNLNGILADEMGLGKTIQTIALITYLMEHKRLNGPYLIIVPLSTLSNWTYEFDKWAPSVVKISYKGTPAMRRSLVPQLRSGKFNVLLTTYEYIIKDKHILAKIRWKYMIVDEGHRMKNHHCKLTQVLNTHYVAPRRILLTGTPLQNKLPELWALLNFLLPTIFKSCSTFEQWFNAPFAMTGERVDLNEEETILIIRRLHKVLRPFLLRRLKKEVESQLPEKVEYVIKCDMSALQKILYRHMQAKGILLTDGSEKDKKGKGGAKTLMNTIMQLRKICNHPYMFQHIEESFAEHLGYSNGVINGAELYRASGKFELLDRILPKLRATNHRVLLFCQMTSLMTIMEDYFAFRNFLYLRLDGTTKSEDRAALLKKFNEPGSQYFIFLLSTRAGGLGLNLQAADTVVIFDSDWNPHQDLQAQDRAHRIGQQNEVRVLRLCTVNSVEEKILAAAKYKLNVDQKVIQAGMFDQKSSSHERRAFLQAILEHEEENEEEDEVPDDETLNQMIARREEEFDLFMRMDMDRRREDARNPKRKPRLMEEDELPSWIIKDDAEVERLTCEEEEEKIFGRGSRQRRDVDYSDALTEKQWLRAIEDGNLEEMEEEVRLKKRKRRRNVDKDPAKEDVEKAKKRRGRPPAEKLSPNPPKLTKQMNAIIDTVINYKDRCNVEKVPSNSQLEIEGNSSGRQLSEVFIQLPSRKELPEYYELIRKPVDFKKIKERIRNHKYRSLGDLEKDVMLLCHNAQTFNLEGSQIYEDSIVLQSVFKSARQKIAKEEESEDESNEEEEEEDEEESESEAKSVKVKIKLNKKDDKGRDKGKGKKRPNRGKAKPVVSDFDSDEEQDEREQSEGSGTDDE
T2 sequence (P51532 whole entry): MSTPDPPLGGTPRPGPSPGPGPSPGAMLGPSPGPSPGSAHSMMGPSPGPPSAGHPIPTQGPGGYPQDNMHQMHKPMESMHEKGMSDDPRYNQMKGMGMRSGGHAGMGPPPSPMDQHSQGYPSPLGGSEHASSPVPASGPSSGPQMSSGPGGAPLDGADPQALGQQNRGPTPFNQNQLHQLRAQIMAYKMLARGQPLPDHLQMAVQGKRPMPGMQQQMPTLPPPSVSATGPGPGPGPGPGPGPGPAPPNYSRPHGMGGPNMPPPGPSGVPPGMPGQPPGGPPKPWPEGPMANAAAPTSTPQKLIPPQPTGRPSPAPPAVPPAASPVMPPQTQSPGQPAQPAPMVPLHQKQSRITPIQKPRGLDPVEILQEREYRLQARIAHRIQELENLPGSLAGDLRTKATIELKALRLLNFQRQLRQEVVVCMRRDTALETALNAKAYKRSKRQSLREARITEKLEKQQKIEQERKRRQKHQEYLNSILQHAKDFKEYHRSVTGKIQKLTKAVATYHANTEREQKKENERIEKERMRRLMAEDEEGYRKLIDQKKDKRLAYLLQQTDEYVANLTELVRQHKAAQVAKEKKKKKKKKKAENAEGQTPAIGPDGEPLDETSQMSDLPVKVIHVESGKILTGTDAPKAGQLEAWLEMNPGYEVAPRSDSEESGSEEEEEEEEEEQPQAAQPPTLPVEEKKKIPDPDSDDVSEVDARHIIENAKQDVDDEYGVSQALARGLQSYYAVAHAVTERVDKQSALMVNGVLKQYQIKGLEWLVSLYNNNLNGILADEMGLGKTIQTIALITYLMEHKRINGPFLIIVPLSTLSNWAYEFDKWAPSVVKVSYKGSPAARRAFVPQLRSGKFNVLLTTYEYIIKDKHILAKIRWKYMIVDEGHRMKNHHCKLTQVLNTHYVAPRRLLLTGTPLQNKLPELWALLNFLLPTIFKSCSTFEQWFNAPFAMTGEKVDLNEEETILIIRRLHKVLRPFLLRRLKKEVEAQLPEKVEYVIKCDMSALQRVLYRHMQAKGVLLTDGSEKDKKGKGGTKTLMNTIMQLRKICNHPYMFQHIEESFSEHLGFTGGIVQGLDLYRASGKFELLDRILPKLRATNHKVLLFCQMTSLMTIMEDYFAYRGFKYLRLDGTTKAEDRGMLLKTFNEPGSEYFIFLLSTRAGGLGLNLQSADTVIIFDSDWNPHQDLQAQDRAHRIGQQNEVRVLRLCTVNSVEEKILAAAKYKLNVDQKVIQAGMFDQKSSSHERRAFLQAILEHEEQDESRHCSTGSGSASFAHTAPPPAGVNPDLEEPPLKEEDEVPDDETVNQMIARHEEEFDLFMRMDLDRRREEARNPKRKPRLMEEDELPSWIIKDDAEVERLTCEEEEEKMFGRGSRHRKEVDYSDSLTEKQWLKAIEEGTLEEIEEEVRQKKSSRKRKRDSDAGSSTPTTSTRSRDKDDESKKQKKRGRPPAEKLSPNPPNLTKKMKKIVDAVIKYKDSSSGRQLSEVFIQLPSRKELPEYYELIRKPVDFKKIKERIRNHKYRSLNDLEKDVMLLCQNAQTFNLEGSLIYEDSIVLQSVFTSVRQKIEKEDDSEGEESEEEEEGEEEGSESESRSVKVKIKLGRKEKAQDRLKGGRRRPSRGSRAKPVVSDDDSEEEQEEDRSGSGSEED

Usually DC50 stands for the midpoint of the concentration-degradation curve. Read a low DC50 as a more potent degrader. Usually inhibition stands for the drop in the measured response relative to a control, in per cent. Low values mean a weak effect, high ones a strong effect. With `C[C@@H]1CCN(c2cc(-c3ccccc3O)nnc2N)CCN1c1ccnc(C=CCN(C)CC(F)F)n1` [Compound P-163, o-{5-[(R)-4-(2-{3-[(2,2-difluoroethyl)-N-methylamino]-1-propenyl}-4-pyrimidinyl)-5-methyl-1,4-diazepan-1-yl]-6-amino-3-pyridazinyl}phenol], in experiment [1], the DC50 was in the range of 0.05 to 0.5 µM and the “SMARCA2 % Degradation @ 1 μM” value was “++ (++=30-70%)”. In experiment [2], the DC50 was 0.05 to 0.5 µM and the inhibition at 1 µM is less than 30%.
On to `C[C@@H]1CCN(c2cc(-c3ccccc3O)nnc2N)CCN1c1ccnc(/C=C/CN(C)CCF)n1` [Compound P-164], for which, in experiment [1], the DC50 was less than 0.05 µM and the “SMARCA2 % Degradation @ 1 μM” value is “+++ (+++=>70%)”. In experiment [2], this compound yielded a 50% degradation concentration (DC50) of less than 0.05 µM and an inhibition at 1 µM of 30 to 70%.
As to `CNC/C=C/c1nccc(N2CCN(c3cc(-c4ccccc4O)nnc3N)CC[C@H]2C)n1` [Compound P-165, o-{5-[(R)-5-methyl-4-{2-[3-(methylamino)-1-propenyl]-4-pyrimidinyl}-1,4-diazepan-1-y1]-6-amino-3-pyridaziny1}phenol], in experiment [1], the 50% degradation concentration (DC50) lay within 0.05 to 0.5 µM and the “SMARCA2 % Degradation @ 1 μM” value is on record as “+++ (+++=>70%)”. In experiment [2], this compound yielded a DC50 of 0.05 to 0.5 µM and an inhibition at 1 µM of 30 to 70%.
On to `C[C@@H]1CCN(c2cc(-c3ccccc3O)nnc2N)CCN1c1ccnc(/C=C/CN2CCC2)n1` [Compound P-166, o-{5-[(R)-4-{2-[3-(1-azetidinyl)-1-propenyl]-4-pyrimidinyl}-5-methyl-1,4-diazepan-1-yl]-6-amino-3-pyridazinyl}phenol], for which, in experiment [1], the DC50 fell in the range of 0.05 to 0.5 µM and the “SMARCA2 % Degradation @ 1 μM” value is given as “+++ (+++=>70%)”. In experiment [2], this compound came in with a DC50 of 0.05 to 0.5 µM and an inhibition at 1 µM of more than 70%.
As for `C[C@@H]1CCN(c2cc(-c3ccccc3O)nnc2N)CCN1c1ccnc(/C=C/CN2CCOCC2)n1` [Compound P-167, o-(5-{(R)-5-methyl-4-[2-(3-morpholino-1-propenyl)-4-pyrimidinyl]-1,4-diazepan-1-y1}-6-amino-3-pyridazinyl)phenol], in experiment [1], the DC50 is less than 0.05 µM and the “SMARCA2 % Degradation @ 1 μM” value is listed as “++ (++=30-70%)”. In experiment [2], the DC50 is less than 0.05 µM and the inhibition at 1 µM is less than 30%.
`C[C@@H]1CCN(c2cc(-c3ccccc3O)nnc2N)CCN1c1ccnc(/C=C/CO)n1` [Compound P-168, o-(5-{(R)-4-[2-(3-hydroxy-1-propenyl)-4-pyrimidinyl]-5-methyl-1,4-diazepan-1-y1}-6-amino-3-pyridazinyl)phenol]: in experiment [1], the 50% degradation concentration (DC50) lay in the range of 0.05 to 0.5 µM and the “SMARCA2 % Degradation @ 1 μM” value was “+++ (+++=>70%)”. In experiment [2], this compound showed a DC50 of 0.05 to 0.5 µM and an inhibition at 1 µM of more than 70%.
Turning to `C/C=C/c1nccc(N2CCN(c3cc(-c4ccccc4O)nnc3N)CC[C@H]2C)n1` [Compound P-169, o-(5-{(R)-5-methyl-4-[2-(1-propenyl)-4-pyrimidinyl]-1,4-diazepan-1-yl}-6-amino-3-pyridazinyl)phenol], in experiment [1], the half-maximal degradation concentration (DC50) lay within 0.05 to 0.5 µM and the “SMARCA2 % Degradation @ 1 μM” value is given as “+++ (+++=>70%)”. In experiment [2], this compound registered a DC50 of 0.05 to 0.5 µM and an inhibition at 1 µM of more than 70%.
On to `COC/C=C/c1nccc(N2CCN(c3cc(-c4ccccc4O)nnc3N)CC[C@H]2C)n1` [Compound P-170, o-(5-{(R)-4-[2-(3-methoxy-1-propenyl)-4-pyrimidinyl]-5-methyl-1,4-diazepan-1-yl}-6-amino-3-pyridazinyl)phenol], for which, in experiment [1], the half-maximal degradation concentration (DC50) lay within 0.05 to 0.5 µM and the “SMARCA2 % Degradation @ 1 μM” value was “++ (++=30-70%)”. In experiment [2], this compound displayed a DC50 of 0.5 to 5 µM and an inhibition at 1 µM of 30 to 70%.
Consider `C[C@@H]1CCN(c2cc(-c3ccccc3O)nnc2N)CCN1c1ccnc(/C=C/C2CC2)n1` [Compound P-171, o-(5-{(R)-4-[2-(2-cyclopropylethenyl)-4-pyrimidinyl]-5-methyl-1,4-diazepan-1-yl}-6-amino-3-pyridazinyl)phenol], for which, in experiment [1], the 50% degradation concentration (DC50) lay within 0.05 to 0.5 µM and the “SMARCA2 % Degradation @ 1 μM” value was “++ (++=30-70%)”. Moreover, in experiment [2], the DC50 fell in the range of 0.5 to 5 µM and the inhibition at 1 µM is less than 30%.
On the same counts, the results for `CN(C)CC#Cc1nccc(N2CCCC(c3cc(-c4ccccc4O)nnc3N)CC2)n1` (centres unmarked) [Compound P-172, o-[6-amino-5-(1-{2-[3-(dimethylamino)-1-propynyl]-4-pyrimidinyl}-4-azepanyl)-3-pyridazinyl]phenol] are less than 0.05 µM, “++ (++=30-70%)”, less than 0.05 µM and 30 to 70%.
On the same counts, the results for `C[C@@H]1CCN(c2cc(-c3ccccc3O)nnc2N)CCN1c1ccnc(C#CC2CN(CC(F)(F)F)C2)n1` [Compound P-173, o-{5-[(R)-5-methyl-4-(2-{2-[1-(2,2,2-trifluoroethyl)-3-azetidinyl]ethynyl}-4-pyrimidinyl)-1,4-diazepan-1-y1]-6-amino-3-pyridazinyl}phenol] are less than 0.05 µM, “+++ (+++=>70%)”, 0.05 to 0.5 µM and 30 to 70%.
As for `C[C@@H]1CCN(c2cc(-c3ccccc3O)nnc2N)CCN1c1ccnc(C#CC2CN(CC(F)F)C2)n1` [Compound P-174, o-{5-[(R)-4-(2-{2-[1-(2,2-difluoroethyl)-3-azetidinyl]ethynyl}-4-pyrimidinyl)-5-methyl-1,4-diazepan-1-y1]-6-amino-3-pyridazinyl}phenol], in experiment [1], the DC50 fell in the range of 0.05 to 0.5 µM and the “SMARCA2 % Degradation @ 1 μM” value is reported as “+++ (+++=>70%)”. In experiment [2], this compound returned a 50% degradation concentration (DC50) of 0.05 to 0.5 µM and an inhibition at 1 µM of 30 to 70%.
`C[C@@H]1CCC(=O)N1CC#Cc1ncc(F)c(N2CCN(c3cc(-c4ccccc4O)nnc3N)CC[C@H]2C)n1` [Compound P-175, (R)-1-[3-(4-{(R)-4-[3-amino-6-(o-hydroxyphenyl)-4-pyridazinyl]-7-methyl-1,4-diazepan-1-yl}-5-fluoro-2-pyrimidinyl)-2-propynyl]-5-methyl-2-pyrrolidinone]: in experiment [1], the DC50 lay within 0.05 to 0.5 µM and the “SMARCA2 % Degradation @ 1 μM” value is given as “++ (++=30-70%)”. In experiment [2], this compound displayed a DC50 of 0.05 to 0.5 µM and an inhibition at 1 µM of less than 30%.
With `C[C@@H]1CCN(c2cc(-c3ccccc3O)nnc2N)CCN1c1nc(C#CCN2C(=O)CC[C@@H]2C)ncc1F` [Compound P-176, (S)-1-[3-(4-{(R)-4-[3-amino-6-(o-hydroxyphenyl)-4-pyridazinyl]-7-methyl-1,4-diazepan-1-yl}-5-fluoro-2-pyrimidinyl)-2-propynyl]-5-methyl-2-pyrrolidinone], in experiment [1], the DC50 fell in the range of 0.05 to 0.5 µM and the “SMARCA2 % Degradation @ 1 μM” value was “++ (++=30-70%)”. Further, in experiment [2], the DC50 is 0.05 to 0.5 µM and the inhibition at 1 µM lay within 30 to 70%.
On to `Cc1cc(C)n(CC#Cc2nccc(N3CCN(c4cc(-c5ccccc5O)nnc4N)CC[C@H]3C)n2)n1` [Compound P-177, o-{5-[(R)-4-{2-[3-(3,5-dimethyl-1-pyrazolyl)-1-propynyl]-4-pyrimidinyl}-5-methyl-1,4-diazepan-1-yl]-6-amino-3-pyridazinyl}phenol], for which, in experiment [1], the half-maximal degradation concentration (DC50) lay within 0.05 to 0.5 µM and the “SMARCA2 % Degradation @ 1 μM” value was “++ (++=30-70%)”. In experiment [2], this compound gave a half-maximal degradation concentration (DC50) of 0.05 to 0.5 µM and an inhibition at 1 µM of less than 30%.
For `C[C@@H]1CCN(c2cc(-c3ccccc3O)nnc2N)CCN1c1ccnc(C#CCN2CC3CCC2CO3)n1` (stereo partly drawn) [Compound P-178, o-{5-[(R)-5-methyl-4-(2-{3-(2-oxa-5-azabicyclo[2.2.2]oct-5-yl)-1-propynyl}-4-pyrimidinyl)-1,4-diazepan-1-yl]-6-amino-3-pyridazinyl}phenol], in experiment [1], the DC50 was 0.05 to 0.5 µM and the “SMARCA2 % Degradation @ 1 μM” value is reported as “+++ (+++=>70%)”. Also, in experiment [2], the half-maximal degradation concentration (DC50) was in the range of 0.05 to 0.5 µM and the inhibition at 1 µM fell in the range of 30 to 70%.
For the compound `C[C@@H]1CCN(c2cc(-c3ccccc3O)nnc2N)CCN1c1ccnc(C#CCN2CC3CC(C2)O3)n1` [Compound P-179, o-{5-[(R)-5-methyl-4-(2-{3-(6-oxa-3-azabicyclo[3.1.1]hept-3-yl)-1-propynyl}-4-pyrimidinyl)-1,4-diazepan-1-yl]-6-amino-3-pyridazinyl}phenol], in experiment [1], the DC50 was 0.05 to 0.5 µM and the “SMARCA2 % Degradation @ 1 μM” value is on record as “+++ (+++=>70%)”. For the same compound, in experiment [2], the half-maximal degradation concentration (DC50) is 0.05 to 0.5 µM and the inhibition at 1 µM lay in the range of 30 to 70%.
For `Nc1nnc(-c2ccccc2O)cc1N1C[C@H]2CN(c3ccnc(C#CCN4CC(F)(F)C4)n3)C[C@H]2C1` [Compound P-180], in experiment [1], the 50% degradation concentration (DC50) was less than 0.05 µM and the “SMARCA2 % Degradation @ 1 μM” value is “++ (++=30-70%)”. Further, in experiment [2], the DC50 was less than 0.05 µM and the inhibition at 1 µM fell in the range of 30 to 70%.
`CN(C)CC#Cc1nccc(N2C[C@@H]3CN(c4cc(-c5ccccc5O)nnc4N)C[C@@H]3C2)n1` [Compound P-181, o-{5-[(1R,5S)-7-{2-[3-(dimethylamino)-1-propynyl]-4-pyrimidinyl}-3,7-diazabicyclo[3.3.0]oct-3-yl]-6-amino-3-pyridazinyl} phenol]: in experiment [1], the DC50 lay within 0.05 to 0.5 µM and the “SMARCA2 % Degradation @ 1 μM” value is listed as “++ (++=30-70%)”. In experiment [2], the DC50 was less than 0.05 µM and the inhibition at 1 µM was in the range of 30 to 70%.
Take `Nc1nnc(-c2ccccc2O)cc1N1C2CCC1CN(c1ccnc(C#CCN3CC4CC3C4)n1)C2` [Compound P-182, o-{6-amino-5-[3-(2-{3-(2-azabicyclo[2.1.1]hex-2-yl)-1-propynyl}-4-pyrimidinyl)-3,8-diazabicyclo[3.2.1]oct-8-yl]-3-pyridazinyl}phenol]: in experiment [1], the half-maximal degradation concentration (DC50) lay in the range of 0.05 to 0.5 µM and the “SMARCA2 % Degradation @ 1 μM” value was “++ (++=30-70%)”. In experiment [2], this compound returned a half-maximal degradation concentration (DC50) of 0.05 to 0.5 µM and an inhibition at 1 µM of 30 to 70%.
